Here are results for six molecules from ChEMBL document CHEMBL2439983, “The discovery and optimization of novel dual inhibitors of topoisomerase II and histone deacetylase” (Bioorg Med Chem, 2013).

pIC50: −log10 of the molar value. Active and inactive are the calls of the source. The calls are words filed in the database; no cut-off is given here.

Chain of Histone deacetylase 1 (Q13547 whole entry): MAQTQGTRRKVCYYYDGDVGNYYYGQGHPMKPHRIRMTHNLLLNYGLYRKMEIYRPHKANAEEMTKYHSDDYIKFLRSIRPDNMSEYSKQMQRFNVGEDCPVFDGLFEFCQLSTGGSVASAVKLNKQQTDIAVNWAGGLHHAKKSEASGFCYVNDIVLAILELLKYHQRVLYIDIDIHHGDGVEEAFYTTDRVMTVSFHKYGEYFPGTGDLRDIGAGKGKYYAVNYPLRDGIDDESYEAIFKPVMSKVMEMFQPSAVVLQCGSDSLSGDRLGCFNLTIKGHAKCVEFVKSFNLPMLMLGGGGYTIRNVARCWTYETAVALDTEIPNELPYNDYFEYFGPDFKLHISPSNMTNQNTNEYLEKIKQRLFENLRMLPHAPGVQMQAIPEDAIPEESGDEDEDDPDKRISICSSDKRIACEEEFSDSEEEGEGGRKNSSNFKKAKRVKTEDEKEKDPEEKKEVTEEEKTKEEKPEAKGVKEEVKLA
Chain of Histone deacetylase 3 (O15379 whole entry): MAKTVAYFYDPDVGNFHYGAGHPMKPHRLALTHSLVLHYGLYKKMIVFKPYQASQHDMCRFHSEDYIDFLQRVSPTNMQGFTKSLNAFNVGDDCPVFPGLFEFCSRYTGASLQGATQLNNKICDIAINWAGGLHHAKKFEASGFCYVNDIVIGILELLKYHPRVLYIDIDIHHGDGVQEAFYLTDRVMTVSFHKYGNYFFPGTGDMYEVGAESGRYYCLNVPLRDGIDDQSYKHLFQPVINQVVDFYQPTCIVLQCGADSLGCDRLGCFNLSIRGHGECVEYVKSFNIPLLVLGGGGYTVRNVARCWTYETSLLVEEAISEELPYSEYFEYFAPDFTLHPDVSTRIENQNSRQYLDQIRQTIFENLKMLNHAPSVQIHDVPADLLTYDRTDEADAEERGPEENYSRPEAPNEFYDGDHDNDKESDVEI
Chain of Histone deacetylase 2 (Q92769 whole entry): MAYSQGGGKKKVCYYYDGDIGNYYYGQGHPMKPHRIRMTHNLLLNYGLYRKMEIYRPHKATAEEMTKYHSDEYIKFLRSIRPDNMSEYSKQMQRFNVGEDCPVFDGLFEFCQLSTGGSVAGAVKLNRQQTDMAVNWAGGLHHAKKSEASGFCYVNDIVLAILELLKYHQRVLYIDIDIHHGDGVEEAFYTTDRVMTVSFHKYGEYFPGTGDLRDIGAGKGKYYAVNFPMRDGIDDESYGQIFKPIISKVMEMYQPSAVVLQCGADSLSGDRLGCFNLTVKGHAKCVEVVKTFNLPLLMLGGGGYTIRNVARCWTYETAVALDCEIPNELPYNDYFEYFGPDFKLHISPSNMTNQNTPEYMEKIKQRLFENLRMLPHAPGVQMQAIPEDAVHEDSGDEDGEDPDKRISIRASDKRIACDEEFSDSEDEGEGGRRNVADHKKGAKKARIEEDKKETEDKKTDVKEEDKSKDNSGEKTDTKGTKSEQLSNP
Chain of DNA topoisomerase 2-alpha (Homo sapiens) (P11388 whole entry): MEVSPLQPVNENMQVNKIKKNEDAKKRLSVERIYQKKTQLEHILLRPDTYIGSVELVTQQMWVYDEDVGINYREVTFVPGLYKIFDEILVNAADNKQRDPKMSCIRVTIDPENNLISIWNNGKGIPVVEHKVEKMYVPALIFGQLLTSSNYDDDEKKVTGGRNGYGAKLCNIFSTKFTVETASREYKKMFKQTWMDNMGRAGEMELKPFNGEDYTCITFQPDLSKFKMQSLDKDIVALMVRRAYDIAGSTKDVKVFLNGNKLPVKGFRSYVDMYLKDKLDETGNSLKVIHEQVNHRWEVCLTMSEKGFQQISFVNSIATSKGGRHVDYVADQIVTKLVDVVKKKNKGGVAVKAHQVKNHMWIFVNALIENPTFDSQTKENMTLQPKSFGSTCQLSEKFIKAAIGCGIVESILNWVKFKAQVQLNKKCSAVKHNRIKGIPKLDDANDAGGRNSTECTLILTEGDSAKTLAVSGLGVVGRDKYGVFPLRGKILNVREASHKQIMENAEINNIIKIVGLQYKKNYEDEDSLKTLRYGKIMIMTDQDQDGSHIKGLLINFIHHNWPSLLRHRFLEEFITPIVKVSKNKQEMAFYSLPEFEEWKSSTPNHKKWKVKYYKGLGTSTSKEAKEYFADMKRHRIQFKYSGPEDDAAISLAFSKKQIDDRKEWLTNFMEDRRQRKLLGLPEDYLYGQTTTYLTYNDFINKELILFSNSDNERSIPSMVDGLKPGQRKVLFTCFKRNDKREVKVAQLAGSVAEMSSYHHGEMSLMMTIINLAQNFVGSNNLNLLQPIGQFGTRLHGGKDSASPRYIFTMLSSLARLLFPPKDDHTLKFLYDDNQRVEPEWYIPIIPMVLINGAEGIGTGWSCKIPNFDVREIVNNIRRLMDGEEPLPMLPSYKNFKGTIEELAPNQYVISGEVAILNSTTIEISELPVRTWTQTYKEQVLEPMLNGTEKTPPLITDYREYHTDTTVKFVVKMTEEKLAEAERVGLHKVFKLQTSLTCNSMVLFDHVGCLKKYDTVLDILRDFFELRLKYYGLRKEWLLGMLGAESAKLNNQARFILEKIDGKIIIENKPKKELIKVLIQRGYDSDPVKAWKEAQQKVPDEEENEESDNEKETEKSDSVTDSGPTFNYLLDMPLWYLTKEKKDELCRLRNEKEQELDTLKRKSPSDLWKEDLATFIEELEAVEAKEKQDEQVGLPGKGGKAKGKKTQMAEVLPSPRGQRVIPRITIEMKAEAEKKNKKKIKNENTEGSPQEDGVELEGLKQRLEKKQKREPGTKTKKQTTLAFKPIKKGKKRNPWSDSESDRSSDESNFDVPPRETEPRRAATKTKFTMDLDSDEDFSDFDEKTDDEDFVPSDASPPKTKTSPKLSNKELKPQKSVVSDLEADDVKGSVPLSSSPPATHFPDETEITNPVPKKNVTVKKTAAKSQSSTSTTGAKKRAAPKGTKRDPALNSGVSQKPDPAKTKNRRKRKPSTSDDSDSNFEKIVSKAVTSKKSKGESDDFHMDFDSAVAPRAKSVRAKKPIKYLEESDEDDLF

One experiment has as its target Histone deacetylase 2 (Homo sapiens, UniProt Q92769). As to the kind of experiment: Inhibition of HDAC2 (unknown origin).
Details: not given
For orientation: pIC50 means the IC50 on a negative log10 scale, so that one unit is a factor of ten. In the case of `COc1cc([C@@H]2c3cc4c(cc3[C@@H](Nc3ccc(NC(=O)CCCCCCC(=O)NO)cc3)[C@H]3COC(=O)[C@H]23)OCO4)cc(OC)c1O`, the pIC50 was 6.85.
Same read-out and setting: the figure for `COc1cc([C@@H]2c3cc4c(cc3[C@@H](Nc3cccc(OCCCCCCC(=O)Nc5ccccc5N)c3)[C@H]3COC(=O)[C@H]23)OCO4)cc(OC)c1O` is 4.27; for `COc1cc([C@@H]2c3cc4c(cc3[C@@H](Nc3ccc(OCCCCCCC(=O)Nc5ccccc5N)cc3)[C@H]3COC(=O)[C@H]23)OCO4)cc(OC)c1O` it is 4.98.

Another experiment addresses DNA topoisomerase 2-alpha (Homo sapiens) (UniProt P11388). The experiment is described as follows: Inhibition of Topoisomerase 2 (unknown origin) assessed as impairment of pBR322 DNA decatenation at 100 uM after 30 mins by agarose gel electrophoresis.
Details: not given
Take `COc1cc([C@@H]2c3cc4c(cc3[C@@H](Nc3cccc(OCCCCCCC(=O)NO)c3)[C@H]3COC(=O)[C@H]23)OCO4)cc(OC)c1O`: the inhibition entry is “Active”.
Same read-out and setting: the entry for `O=C(CCCCCCC(=O)Nc1ccccc1)NO` is “inactive”.
Same read-out and setting: the entry for `COc1cc([C@@H]2c3cc4c(cc3[C@@H](Nc3ccc(NC(=O)CCCCCCC(=O)NO)cc3)[C@H]3COC(=O)[C@H]23)OCO4)cc(OC)c1O` is “Active”; for `Nc1ccccc1NC(=O)c1ccc(CNc2nccc(-c3cccnc3)n2)cc1` [MOCETINOSTAT] it is “inactive”.
On the same count and under the same terms, the value for `COc1cc([C@@H]2c3cc4c(cc3[C@@H](Nc3ccc(OCCCCCCC(=O)Nc5ccccc5N)cc3)[C@H]3COC(=O)[C@H]23)OCO4)cc(OC)c1O` was “Active”.

Another experiment concerns A549. As to the kind of experiment: Antiproliferative activity against human A549 cells assessed as cell viability after 72 hrs by MTT assay. The format is functional, cell-based. Particulars: A549, 72 h. A general note: Tetrazolium assays rely on reduction of a dye to a coloured formazan, in cell work by metabolically active cells.
Take `COc1cc([C@@H]2c3cc4c(cc3[C@@H](Nc3ccc(NC(=O)CCCCCCC(=O)NO)cc3)[C@H]3COC(=O)[C@H]23)OCO4)cc(OC)c1O`: the pIC50 was 4.73.
The same measure, in the same setting: the figure for `COc1cc([C@@H]2c3cc4c(cc3[C@@H](Nc3cccc(OCCCCCCC(=O)Nc5ccccc5N)c3)[C@H]3COC(=O)[C@H]23)OCO4)cc(OC)c1O` is 5.95.
On the same count and under the same terms, the figure for `COc1cc([C@@H]2c3cc4c(cc3[C@@H](Nc3ccc(OCCCCCCC(=O)Nc5ccccc5N)cc3)[C@H]3COC(=O)[C@H]23)OCO4)cc(OC)c1O` is 5.94.

For a further experiment, the target named is T1, Protein deacetylase HDAC6 (Homo sapiens, UniProt Q9UBN7).
T1 sequence (Q9UBN7 whole entry): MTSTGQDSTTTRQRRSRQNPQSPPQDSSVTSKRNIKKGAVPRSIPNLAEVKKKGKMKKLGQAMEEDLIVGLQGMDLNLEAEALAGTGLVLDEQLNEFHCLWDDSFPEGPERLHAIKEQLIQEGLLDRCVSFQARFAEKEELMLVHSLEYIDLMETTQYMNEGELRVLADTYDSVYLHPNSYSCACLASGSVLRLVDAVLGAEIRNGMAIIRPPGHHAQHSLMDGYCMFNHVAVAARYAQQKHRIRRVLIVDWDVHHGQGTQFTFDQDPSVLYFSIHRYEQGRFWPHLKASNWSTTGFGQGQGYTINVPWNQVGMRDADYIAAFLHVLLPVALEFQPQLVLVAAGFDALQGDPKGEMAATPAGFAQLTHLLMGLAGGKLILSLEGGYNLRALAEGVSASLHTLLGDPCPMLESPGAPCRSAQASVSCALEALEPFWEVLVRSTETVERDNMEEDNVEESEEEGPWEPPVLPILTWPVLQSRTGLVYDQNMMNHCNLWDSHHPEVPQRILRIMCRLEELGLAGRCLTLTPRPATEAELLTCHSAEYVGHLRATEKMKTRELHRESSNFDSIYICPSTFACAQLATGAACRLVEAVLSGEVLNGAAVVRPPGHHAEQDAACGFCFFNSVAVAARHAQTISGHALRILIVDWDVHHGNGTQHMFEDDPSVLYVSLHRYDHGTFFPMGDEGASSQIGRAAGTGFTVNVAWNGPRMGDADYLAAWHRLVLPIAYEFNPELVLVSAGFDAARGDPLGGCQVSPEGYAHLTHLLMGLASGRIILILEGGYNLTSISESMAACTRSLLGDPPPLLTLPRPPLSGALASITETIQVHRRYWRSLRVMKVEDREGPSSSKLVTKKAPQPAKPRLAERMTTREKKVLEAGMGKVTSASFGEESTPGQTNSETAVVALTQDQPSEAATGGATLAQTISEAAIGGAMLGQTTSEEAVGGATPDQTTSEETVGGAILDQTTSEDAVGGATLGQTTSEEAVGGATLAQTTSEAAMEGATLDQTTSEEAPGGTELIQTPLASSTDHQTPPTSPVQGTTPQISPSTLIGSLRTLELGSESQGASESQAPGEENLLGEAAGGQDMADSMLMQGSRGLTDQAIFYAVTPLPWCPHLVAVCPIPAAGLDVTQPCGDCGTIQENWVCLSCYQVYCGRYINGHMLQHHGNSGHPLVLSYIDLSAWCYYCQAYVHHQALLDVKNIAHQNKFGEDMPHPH
As to the kind of experiment: Inhibition of human recombinant HDAC6 expressed in baculovirus infected insect high5 cells using Boc-Lys (epsilon-acetyl)-AM) as substrate after 3 to 24 hrs by fluorescence assay.
Details: not given
Turning to `COc1cc([C@@H]2c3cc4c(cc3[C@@H](Nc3cccc(OCCCCCCC(=O)NO)c3)[C@H]3COC(=O)[C@H]23)OCO4)cc(OC)c1O`, the negative-log IC50 (pIC50) is 8.25.
Take `COc1cc([C@@H]2c3cc4c(cc3[C@@H](Nc3ccc(NC(=O)CCCCCCC(=O)NO)cc3)[C@H]3COC(=O)[C@H]23)OCO4)cc(OC)c1O`: the negative logarithm of the IC50 (pIC50) was 7.05.

The next experiment has as its target Histone deacetylase 3 (Homo sapiens, UniProt O15379). As to the kind of experiment: Inhibition of human recombinant HDAC3 expressed in baculovirus infected insect high5 cells using Ac-Lys-Tyr-Lys (epsilon-acetyl)-AMC as substrate after 3 to 24 hrs by fluorescence assay.
Details: not given
As for `COc1cc([C@@H]2c3cc4c(cc3[C@@H](Nc3cccc(OCCCCCCC(=O)NO)c3)[C@H]3COC(=O)[C@H]23)OCO4)cc(OC)c1O`, the pIC50 is 8.02.
For the molecule `COc1cc([C@@H]2c3cc4c(cc3[C@@H](Nc3ccc(NC(=O)CCCCCCC(=O)NO)cc3)[C@H]3COC(=O)[C@H]23)OCO4)cc(OC)c1O`, the pIC50 is 6.64.
On to `COc1cc([C@@H]2c3cc4c(cc3[C@@H](Nc3ccc(OCCCCCCC(=O)Nc5ccccc5N)cc3)[C@H]3COC(=O)[C@H]23)OCO4)cc(OC)c1O`, for which the negative logarithm of the IC50 (pIC50) was 4.93.

A further experiment has as its target Histone deacetylase 1 (Homo sapiens, UniProt Q13547). The experiment is described as follows: Inhibition of human recombinant HDAC1 expressed in baculovirus infected insect high5 cells using Ac-Lys-Tyr-Lys (epsilon-acetyl)-AMC as substrate after 3 to 24 hrs by fluorescence assay.
Details: not given
`COc1cc([C@@H]2c3cc4c(cc3[C@@H](Nc3cccc(OCCCCCCC(=O)NO)c3)[C@H]3COC(=O)[C@H]23)OCO4)cc(OC)c1O`: the pIC50 is 7.96.
The same measure, in the same setting: the value for `COc1cc([C@@H]2c3cc4c(cc3[C@@H](Nc3ccc(NC(=O)CCCCCCC(=O)NO)cc3)[C@H]3COC(=O)[C@H]23)OCO4)cc(OC)c1O` was 6.68.
Same read-out and setting: the figure for `COc1cc([C@@H]2c3cc4c(cc3[C@@H](Nc3ccc(OCCCCCCC(=O)Nc5ccccc5N)cc3)[C@H]3COC(=O)[C@H]23)OCO4)cc(OC)c1O` is 4.85.

For another experiment, the system named is HCT-116. The experiment is described as follows: cells. Conditions: Homo sapiens, HCT-116, 72 h.
Description: Antiproliferative activity against human HCT116 cells assessed as cell viability after 72 hrs by MTT assay
In turn, `COc1cc([C@@H]2c3cc4c(cc3[C@@H](Nc3cccc(OCCCCCCC(=O)NO)c3)[C@H]3COC(=O)[C@H]23)OCO4)cc(OC)c1O` had a pIC50 of 5.48.
The same measure, in the same setting: the figure for `COc1cc([C@@H]2c3cc4c(cc3[C@@H](Nc3ccc(NC(=O)CCCCCCC(=O)NO)cc3)[C@H]3COC(=O)[C@H]23)OCO4)cc(OC)c1O` is 5.90.
In turn, `COc1cc([C@@H]2c3cc4c(cc3[C@@H](Nc3cccc(OCCCCCCC(=O)Nc5ccccc5N)c3)[C@H]3COC(=O)[C@H]23)OCO4)cc(OC)c1O` showed a pIC50 of 6.04.
The molecule `Nc1ccccc1NC(=O)c1ccc(CNc2nccc(-c3cccnc3)n2)cc1` [MOCETINOSTAT] showed a pIC50 of 5.80.
With `COc1cc([C@@H]2c3cc4c(cc3[C@@H](Nc3ccc(OCCCCCCC(=O)Nc5ccccc5N)cc3)[C@H]3COC(=O)[C@H]23)OCO4)cc(OC)c1O`, the negative-log IC50 (pIC50) was 6.28.
